Experimental data: PubChem BioAssay AID1996
Converted amounts (≈) assume the structure as drawn.

Conditions: buffer; pH 7.4; 200.0 µM

SMILES	solubility kinetic [µg/mL]
COC(=O)c1cc(C(=O)N2CCOCC2)cc([N+](=O)[O-])c1	> 44.1
CN(C)N1C(=O)CC(N2CCCCC2)C1=O (stereo unspecified)	> 33.8
COc1ccc([N+](=O)[O-])cc1NC(=S)NC(C)=O	2 (≈ 7.43 µM)
Cc1ccnc(NC(=O)CSc2ccccn2)c1	36.7 (≈ 142 µM)
c1ccc2c(OCCCCN3CCCC3)cccc2c1	40.1 (≈ 149 µM)
Cc1ccccc1-c1nnc(SCC(=O)N2CCCC2)o1	> 45.5
COc1cc2nc(N3CCN(C(=O)c4ccco4)CC3)nc(N)c2cc1OC.Cl	61.9
O=C(Cc1ccccc1)Nc1ccccc1C(=O)N1CCCCC1	> 48.4
NC(=O)c1ccc[n+](CC(=O)NCc2ccc(Cl)cc2)c1.[Cl-]	> 51
CC(NCc1cccnc1)c1ccccc1 (stereo unspecified)	> 31.8
O=C(NCCCn1ccnc1)c1ccc(OCC(F)(F)F)cc1	43.4 (≈ 133 µM)
O=C(Nc1cc(Cl)cc(Cl)c1)N1CCCC1	34.6 (≈ 134 µM)
O=C(NC1CCCCCCC1)c1cc([N+](=O)[O-])ccc1Cl	8.5 (≈ 27.4 µM)
CCc1c(C#N)sc(C(N)=O)c1CC	> 31.2
Nc1nnc(SCC(=O)N2CCCCC2)s1	> 38.8
O=C(NNC1=NS(=O)(=O)c2ccccc21)c1ccccc1	> 45.2
CCC(=O)N(CCC(c1ccco1)C(C)C)Cc1ccccc1 (stereo unspecified)	23.7 (≈ 75.6 µM)
CCC1CCCCN1C(=O)CCCc1ccccc1 (stereo unspecified)	33.2 (≈ 128 µM)
Cc1cccc(OCC(=O)NCc2ccccc2)c1	> 38.3
COc1cccc(CNC(=O)CCCSc2ccccc2)c1	35 (≈ 111 µM)
CCCc1nnc(SCC(=O)N(CC)CC)n1CC1CCCO1 (stereo unspecified)	> 51.1
CCOC(=O)Cn1c(=NC(=O)C(C)C)sc2c(C)cc(C)cc21	< 0.4
O=CNCc1nc2ccccc2n1CCCc1ccccc1	> 44
CCCCC(=O)Nc1ccccc1N1CCN(c2ccccc2)CC1	8.1 (≈ 24 µM)
CNC1=CC(=O)CC(c2ccccc2)C1 (stereo unspecified)	> 30.2
Cc1cc(C)cc(NC(=S)N2CCCC2)c1	> 35.2

SMILES	solubility kinetic [µg/mL]
COc1cccc(CSc2nc(N)cc(N)n2)c1	28.6 (≈ 109 µM)
Cc1ccc(Sc2ncccc2NC(=O)c2ccccc2Cl)cc1	2 (≈ 5.64 µM)
COc1ccc(C(=O)O/N=C(\N)c2ccccn2)cc1[N+](=O)[O-]	2.6 (≈ 8.22 µM)
O=[N+]([O-])c1cccnc1SCc1c(F)cccc1Cl	< 0.3
c1ccc(Nc2ccnc(Nc3ccccc3)n2)cc1	6.7 (≈ 25.5 µM)
O=C(Nc1ccccc1)N(c1ccccc1)C1C=CS(=O)(=O)C1 (stereo unspecified)	> 49.3
CCC(C)(NC(=O)c1ccccn1)C(=O)NC1CCCC1 (stereo unspecified)	> 43.4
CC(Cc1ccccc1)NC=O (stereo unspecified)	24.4 (≈ 149 µM)
O=C(NCCc1ccc(Cl)cc1)Nc1ccc(Cl)cc1	< 0.3
O=C(NNC(=S)NC(=O)c1cccs1)c1cccnc1	> 46
O=[N+]([O-])c1ccc(OCCn2cnc3ccccc32)cc1	7.6 (≈ 26.8 µM)
O=C(CCc1nnc(CCC2CCCCC2)o1)NCc1ccon1	> 49.9
Cl.N=C(N=C(N)N)N1CCOCC1	> 31.1
CCCNC(=O)NC(=O)c1cnccc1C(F)(F)F	34.8 (≈ 126 µM)
COc1cccc(NC(=O)N2CCCCCC2)c1	> 37.2
COCCNc1cnn(-c2ccccc2)c(=O)c1Cl	> 42
CCCC(=O)Nc1nc2c(C)c(Cl)ccc2s1	< 0.3
COc1cc(OC)cc(C(=O)NCc2ccc3c(c2)OCO3)c1	46.1 (≈ 146 µM)
O=C(O)/C=C/C(=O)NCCc1cccc(Cl)c1	> 38.1
CNC(=S)SCCOc1ccccc1	17.5 (≈ 77 µM)
CC(=O)N1CCN(C(=O)c2ccc3c(c2)OCCO3)CC1	> 43.5
CN(C(=O)Cn1cnc2sccc2c1=O)C1CCCCC1	> 45.8
c1ccc(CNc2ncnc3sc4c(c23)CCCC4)nc1	6.7 (≈ 22.6 µM)
CCOC(=O)C1CCCN(CC(=O)Nc2cccc(C(C)=O)c2)C1 (stereo unspecified)	46 (≈ 138 µM)
Cc1ccc(Nc2nc(-c3ccccc3)c(CC(=O)O)s2)cc1	> 48.7

Second part, the molecule after the results:

solubility kinetic [µg/mL]	SMILES
46.1 (≈ 142 µM)	O=C(/C=C/c1c(Cl)cccc1Cl)NCCCn1ccnc1
> 49.2	COc1ccc(-c2c(=O)n(OC)c3ccccc3[n+]2[O-])cc1OC
6.6 (≈ 29 µM)	Oc1ccc(-c2nc3ccccc3s2)cc1
4.7 (≈ 16.7 µM)	COc1ccc(C)cc1NC(=O)C1CC1c1ccccc1 (stereo unspecified)
> 52.9	O=C(CSc1nc(O)c(Cc2ccccc2)c(=O)[nH]1)c1ccccc1
> 44.5	CN1CCC(N(C)C(=O)COc2ccccc2Cl)CC1
< 0.2	O=C(Nc1ccccc1)Nc1nc(-c2ccc(F)c(F)c2)cs1
1.5 (≈ 5.22 µM)	Cc1cccc(N2C(=O)c3cccc4cccc(c34)C2=O)c1
3.8 (≈ 12.2 µM)	CCC1CN(C(=O)NCc2ccccc2)c2cc(C)ccc2O1 (stereo unspecified)
> 47.3	CC(=O)Nc1ccc(NC(=O)[C@H](C)NC(=O)c2ccco2)cc1
> 46.7	COc1ccc(N2CC(C(=O)Nc3ccncc3)CC2=O)cc1 (stereo unspecified)
> 51.2	O=C(CN1C(=O)NC2(CCCCC2)C1=O)N1CCc2ccccc2C1
> 46	CN(Cc1ccc(F)cc1)C(=O)CNC(=O)C1CCCCC1
33.4 (≈ 111 µM)	O=C1CSC(c2ccccc2)N1c1ccc([N+](=O)[O-])cc1 (stereo unspecified)
> 50.4	O=C(O)c1ccc2c(=O)n3c(nc2c1)/C(=C/c1ccc(F)cc1)CC3
> 71.2	Br.COc1ccccc1N1CCN(CCCCN2C(=O)c3ccccc3C2=O)CC1
43.4 (≈ 147 µM)	Cc1cc(C)c(-c2c(O)c3cccnc3n(C)c2=O)c(C)c1
32.6 (≈ 91 µM)	Cn1c(=O)c2c(O)c(C=Nc3ccc(F)cc3)c(=O)n(C)c2n(C)c1=O
18.2	CC(CN1CCOCC1)OC(=O)c1ccc(C(C)(C)C)cc1.Cl (stereo unspecified)
50.3	Cl.O=C(CCCN1CCOC(c2ccccc2)C1)c1ccc(F)cc1 (stereo unspecified)
45.6 (≈ 134 µM)	COc1ccc(-c2noc(CN(Cc3nccn3C)C(C)C)n2)cc1
35.2 (≈ 123 µM)	CCc1ccc(N2CC(C(=O)N3CCCC3)CC2=O)cc1 (stereo unspecified)
> 38.4	COC(=O)c1ccc(NC(=O)c2cccnc2)cc1
2.1 (≈ 6.01 µM)	CN1C(=O)c2ccc(NC(=O)c3ccc(Cl)cc3Cl)cc2C1=O

solubility kinetic [µg/mL]	SMILES
> 36.6	O=C(NCCc1ccc(F)cc1)c1ccncc1
27.2 (≈ 88.1 µM)	Fc1ccc(CNC(=S)NCc2cccc(Cl)c2)cc1
9.6 (≈ 29.3 µM)	C=CCN(Cc1cccc(OC)c1OC)C(=O)Oc1ccccc1
2.9 (≈ 10.5 µM)	COc1ccc2[nH]cc(/C=C/C(=O)c3ccccc3)c2c1
9.8 (≈ 35 µM)	CCn1c(C)c(CS(=O)(=O)c2ccccc2)[nH]c1=O
7.6 (≈ 25.4 µM)	O=[N+]([O-])c1cccc(NC(=S)N2CCc3ccccc32)c1
10.4 (≈ 32.8 µM)	Cc1ccc(C)c(S(=O)(=O)Nc2ccc3[nH]c(=O)[nH]c3c2)c1
< 0.4	O=c1[nH]c(SCc2c(Cl)cccc2Cl)nc2ccccc12
> 44.8	COc1ccc(S(=O)(=O)NC2CCCC2)cc1C(N)=O
7.6 (≈ 23.1 µM)	CCCc1cc(=O)[nH]c(SCC(=O)N2CCc3ccccc32)n1
10.4 (≈ 30.1 µM)	CCN(C(=O)COC(=O)c1ccc2c(c1)OCO2)c1ccc(F)cc1
4.8 (≈ 9.42 µM)	O=C(Nc1cc(S(=O)(=O)N2CCOCC2)ccc1O)c1ccc(S(=O)(=O)N2CCCCC2)cc1
> 52.9	O=C(CCN1C(=O)c2cccc3cccc(c23)C1=O)NCC1CCCO1 (stereo unspecified)
> 36	Cc1nc2ccccc2c(=O)n1Cc1ccco1
> 56.7	O=C(COC(=O)CCC(=O)c1ccc(F)cc1)NCc1ccccc1Cl
2.9 (≈ 8.48 µM)	O=C(COc1cccnc1[N+](=O)[O-])Nc1cc(Cl)ccc1Cl
3.2 (≈ 10.1 µM)	COc1ccc(-c2cc(-c3ccccc3)c(C#N)c(=S)[nH]2)cc1
> 41.8	CCc1ccccc1NC(=O)CC1SCCNC1=O (stereo unspecified)
13.9 (≈ 50.3 µM)	COC(=O)c1ccc(C(=O)N=c2sccn2C)cc1
> 54.8	O=C(CSC1=NS(=O)(=O)c2ccccc2N1)Nc1ccccc1F
15.6 (≈ 33.4 µM)	CCn1c(=O)c(C(=O)CN(C)CC(=O)Nc2cccc(F)c2)c(N)n(Cc2ccccc2)c1=O
> 46.6	Cc1ccc(-c2sc(-c3cccnc3)nc2CC(=O)O)cc1
> 39.7	O=c1c([N+](=O)[O-])cccn1Cc1ccccc1Cl
42.3	Cl.O=C(CCN1CCN(c2ccccc2F)CC1)c1ccc(Br)cc1

solubility kinetic [µg/mL]	SMILES
43 (≈ 121 µM)	O=C(CNC(=O)c1ccccc1F)OCC(=O)c1c[nH]c2ccccc12
< 0.4	COc1ccc(N2CCN(C(=O)c3cc4ccccc4o3)CC2)cc1
11.6 (≈ 33.8 µM)	CC(=O)N(C)c1ccc(NC(=S)NC(=O)/C=C/c2ccco2)cc1
5.2 (≈ 14.6 µM)	CC1CCC2(CC1)NC(=O)N(CC(=O)N1c3ccccc3CC1C)C2=O (stereo unspecified)
33.5 (≈ 104 µM)	CCC(=O)N1c2ccc(S(=O)(=O)N3CCCC3)cc2CC1C (stereo unspecified)
> 52	CC(=O)c1ccc(N2CCN(C(=O)c3cccs3)C(C)C2)c(F)c1 (stereo unspecified)
> 64.4	Cc1cc(C)c(C)c(S(=O)(=O)NCc2ccc(C(=O)N3CCN(C)CC3)cc2)c1C
3.1 (≈ 11.4 µM)	Cc1nc(NC(=O)c2cc3ccccc3o2)sc1C
> 44.1	O=C(O)CCn1c(=S)n(CCC(=O)O)c2ccccc21
45.6 (≈ 149 µM)	CN1C2CCC1CC(NS(=O)(=O)c1ccc(C#N)cc1)C2 (stereo unspecified)
4.3 (≈ 17.3 µM)	O=Cc1c[nH]c2ccc(C(=O)c3ccccc3)cc12
> 41.2	CC1CC(C)CN(C(=O)c2ccc3ncsc3c2)C1 (stereo unspecified)
44.4 (≈ 143 µM)	COc1ccc(N2C(=O)NC3CC2(C)Oc2ccccc23)cc1 (stereo unspecified)
2.8 (≈ 8.94 µM)	CC(=O)CCc1oc2c([N+](=O)[O-])cccc2c1-c1ccc(C)o1
> 36.5	O=C1C(=O)N(Cc2cccs2)c2ccccc21
8.1 (≈ 21 µM)	O=S(=O)(c1cccs1)N1CN(C2CCCC2)c2nc3ccccc3nc21
6.8 (≈ 20 µM)	CCc1ccc(N2CC(C(=O)NCCC3=CCCCC3)CC2=O)cc1 (stereo unspecified)
< 0.4	CCOC(=O)c1cccc(NC(=O)Nc2ccc3c(c2)C(=O)OC3)c1
< 0.6	Cc1ccccc1OCC(=O)Nc1cccc(Cl)c1C
2.6 (≈ 9.18 µM)	CC(C)Oc1ccc(C2NC(=O)c3ccccc3O2)cc1 (stereo unspecified)
59.7 (≈ 144 µM)	COc1ccc(NC(=O)COC(=O)CCc2nc3ccccc3c(=O)[nH]2)cc1Cl
18.7 (≈ 68.9 µM)	C/C(Nc1ccccc1C(F)(F)F)=C1/CCOC1=O
